Consider five compounds from patent publication US20230123334A1, “AMINO LIPID COMPOUND, PREPARATION METHOD THEREFOR, AND APPLICATION THEREOF” (SHENZHEN SHENXIN BIOTECHNOLOGY CO., LTD., priority 2020, published 2023).

The first experiment concerns MCF7 cells. Description: Transfection of MCF7 cell line, mRNA vectors. The experiment is classed as cell-based. As to conditions: 50 ng EGFP mRNA per well. A digest of the protocol: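 Efficiency was scored as the fraction of GFP-fluorescent cells over all Hoechst-counted cells after delivery of 50 ng EGFP mRNA per well. Cells were MCF7 grown in serum-supplemented DMEM, and Lipofectamine2000 served as reference.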
Take `CCCCCCCCCCCCSc1nc(NCCCN(C)C)nc(SCCCCCCCCC)n1` [Compound S9S12D6]: the “Absolute mRNA transfection efficiency in MCF7 cells” value came out at 50.4%.
Still for that read-out and setting: with `CCCCCCCCCCCCSc1nc(NCCCN2CCOCC2)nc(SCCCCCCCCC)n1` [Compound S9S12D8] the figure was 12.6%; with `CCCCCCCCCCCCSc1nc(NCCCN2CCN(C)CC2)nc(SCCCCCCCCC)n1` [Compound S9S12D9], 5.1%.
Same read-out and setting: with `CCCCCCCCCCCCSc1nc(NCC2CCN(C)CC2)nc(SCCCCCCCCC)n1` [Compound S9S12D10] the figure was 40.9%; with `CCCCCCCCCCCCCCSc1nc(NCCN2CCCC2)nc(SCCCCCCCCC)n1` [Compound S9S14D3], 4.4%.

The next experiment relates to MCF7 cells. Description: Transfection of MCF7 cell line, DNA vectors. The class given is cell-based. More on the design: concentration or dose not given beside the values. As to conditions: plasmid DNA, GFP cells / total cells. In short, it runs like this: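 Read-out: GFP-positive cells as % of all Hoechst-stained nuclei after 96-well transfection of MCF7 cells grown in serum-supplemented DMEM. Positive control was Lipofectamine2000, used per manufacturer's protocol.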
Consider `CCCCCCCCCCCCSc1nc(NCCCN(C)C)nc(SCCCCCCCCC)n1` [Compound S9S12D6], for which the “Absolute DNA transfection efficiency in MCF7 cells” value was determined as 34.2%.
Same read-out and setting: next, `CCCCCCCCCCCCSc1nc(NCCCN2CCOCC2)nc(SCCCCCCCCC)n1` [Compound S9S12D8]: 7.7%; `CCCCCCCCCCCCSc1nc(NCCCN2CCN(C)CC2)nc(SCCCCCCCCC)n1` [Compound S9S12D9]: 33.8%.
The same measure, in the same setting: next, `CCCCCCCCCCCCSc1nc(NCC2CCN(C)CC2)nc(SCCCCCCCCC)n1` [Compound S9S12D10]: 46.0%.
Same read-out and setting: next, `CCCCCCCCCCCCCCSc1nc(NCCN2CCCC2)nc(SCCCCCCCCC)n1` [Compound S9S14D3]: 1.3%.

The next experiment concerns cardiomyocytes. Description: Screening as mRNA vectors in cardiomyocytes. The class given is cell-based. The conditions noted are these: 50 ng EGFP mRNA per well. A digest of the protocol:
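Cardiomyocytes differentiated from hESC, in DMEM with 10% FBS, were transfected with 50 ng EGFP mRNA per well. The read-out was GFP-positive cells as a percentage of Hoechst-stained nuclei, with Lipofectamine Stem as positive control.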
For the compound `CCCCCCCCCCCCSc1nc(NCCCN(C)C)nc(SCCCCCCCCC)n1` [Compound S9S12D6], the “Absolute mRNA transfection efficiency in cardiomyocytes” value amounted to 9.5%.
The same measure, in the same setting: next, `CCCCCCCCCCCCSc1nc(NCCCN2CCOCC2)nc(SCCCCCCCCC)n1` [Compound S9S12D8]: 0.9%.
On the same count and under the same terms, next, `CCCCCCCCCCCCSc1nc(NCCCN2CCN(C)CC2)nc(SCCCCCCCCC)n1` [Compound S9S12D9]: 69.3%; `CCCCCCCCCCCCSc1nc(NCC2CCN(C)CC2)nc(SCCCCCCCCC)n1` [Compound S9S12D10]: 3.8%; `CCCCCCCCCCCCCCSc1nc(NCCN2CCCC2)nc(SCCCCCCCCC)n1` [Compound S9S14D3]: 72.4%.

The next experiment deals with Hela cells. Description: Transfection of Hela cell line, DNA vectors. The experiment is classed as cell-based. As to conditions: 75 ng plasmid DNA, GFP cells / total cells. In short, it runs like this:
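Amino lipid/DOPE liposomes in sodium acetate pH 5.6 were complexed with 75 ng psin-EGFP-IRES-Puro plasmid for 30 min at room temperature, then mixed with 3-5×10^4 Hela cells in DMEM/10% FBS at 37° C. Hoechst stain after 20-24 h, imaging after a further 20-24 h. Efficiency = GFP-positive cells / total nuclei.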
For the compound `CCCCCCCCCCCCSc1nc(NCCCN(C)C)nc(SCCCCCCCCC)n1` [Compound S9S12D6], the “Absolute DNA transfection efficiency in Hela cells” value was 10.9%.
On the same count and under the same terms, next, `CCCCCCCCCCCCSc1nc(NCCCN2CCOCC2)nc(SCCCCCCCCC)n1` [Compound S9S12D8]: 15.8%; `CCCCCCCCCCCCSc1nc(NCCCN2CCN(C)CC2)nc(SCCCCCCCCC)n1` [Compound S9S12D9]: 19.6%; `CCCCCCCCCCCCSc1nc(NCC2CCN(C)CC2)nc(SCCCCCCCCC)n1` [Compound S9S12D10]: 8.9%.
The same measure, in the same setting: with `CCCCCCCCCCCCCCSc1nc(NCCN2CCCC2)nc(SCCCCCCCCC)n1` [Compound S9S14D3] the figure was 2.4%.

The test system of the next experiment is cardiomyocytes. Nature of the experiment: Screening as DNA vectors in cardiomyocytes. The experiment is classed as cell-based. As to conditions: method as Example 4. More on the design: concentration or dose not given beside the values. A digest of the protocol:
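hESC-derived cardiomyocytes in DMEM with 10% FBS were transfected with a GFP DNA vector; Lipofectamine Stem served as positive control. Read-out: percentage of GFP-positive cells relative to total cells counted by Hoechst nuclear stain.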
For `CCCCCCCCCCCCSc1nc(NCCCN(C)C)nc(SCCCCCCCCC)n1` [Compound S9S12D6], the “Absolute DNA transfection efficiency in cardiomyocytes” value came to 3.3%.
`CCCCCCCCCCCCSc1nc(NCCCN2CCOCC2)nc(SCCCCCCCCC)n1` [Compound S9S12D8]: the “Absolute DNA transfection efficiency in cardiomyocytes” value came out at 5.8%.
On the same count and under the same terms, with `CCCCCCCCCCCCSc1nc(NCCCN2CCN(C)CC2)nc(SCCCCCCCCC)n1` [Compound S9S12D9] the figure was 5.9%.
On the same count and under the same terms, next, `CCCCCCCCCCCCSc1nc(NCC2CCN(C)CC2)nc(SCCCCCCCCC)n1` [Compound S9S12D10]: 2.9%; `CCCCCCCCCCCCCCSc1nc(NCCN2CCCC2)nc(SCCCCCCCCC)n1` [Compound S9S14D3]: 0.5%.

The subject of the next experiment is embryonic stem cells (hESC2). Nature of the experiment: Screening as mRNA vectors in embryonic stem cells. The conditions noted are these: 50 ng EGFP mRNA per well. The experiment is classed as cell-based. In short, it runs like this: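 EGFP mRNA (50 ng per well) transfected into hESC2 cells grown in mTeSR1; Lipofectamine Stem served as positive control. Read-out: GFP-fluorescent cells as percentage of total cells.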
`CCCCCCCCCCCCSc1nc(NCCCN(C)C)nc(SCCCCCCCCC)n1` [Compound S9S12D6]: the “Absolute mRNA transfection efficiency in embryonic stem cells” value was 9.3%.
Regarding `CCCCCCCCCCCCSc1nc(NCCCN2CCOCC2)nc(SCCCCCCCCC)n1` [Compound S9S12D8], the “Absolute mRNA transfection efficiency in embryonic stem cells” value is 1.7%.
Same read-out and setting: next, `CCCCCCCCCCCCSc1nc(NCCCN2CCN(C)CC2)nc(SCCCCCCCCC)n1` [Compound S9S12D9]: 20.6%; `CCCCCCCCCCCCSc1nc(NCC2CCN(C)CC2)nc(SCCCCCCCCC)n1` [Compound S9S12D10]: 25.4%.
Still for that read-out and setting: next, `CCCCCCCCCCCCCCSc1nc(NCCN2CCCC2)nc(SCCCCCCCCC)n1` [Compound S9S14D3]: 19.7%.

The test system of another experiment is embryonic stem cells (hESC2). Description: Screening as DNA vectors in embryonic stem cells, flow cytometry. The class given is cell-based. The conditions noted are these: 75 ng plasmid DNA, 48 hours after transfection, flow cytometer. In short, it runs like this: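 hESC2 cells in mTeSR1 on matrigel transfected with 75 ng pSin-EGFP-IRES-Puro complexed with amino lipid/DOPE liposomes formed in sodium acetate pH 5.6; 37 °C, 5% CO2. After 48 h, GFP-positive cells counted by flow cytometry (≥2000 cells), efficiency also expressed relative to Lipofectamine Stem.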
For orientation: Flow cytometry measures light scatter and fluorescence of single cells or particles in a stream.
For the compound `CCCCCCCCCCCCSc1nc(NCCCN(C)C)nc(SCCCCCCCCC)n1` [Compound S9S12D6], the “Absolute DNA transfection efficiency in embryonic stem cells” value was found to be 10.5%.
On the same count and under the same terms, next, `CCCCCCCCCCCCSc1nc(NCCCN2CCOCC2)nc(SCCCCCCCCC)n1` [Compound S9S12D8]: 11.1%; `CCCCCCCCCCCCSc1nc(NCCCN2CCN(C)CC2)nc(SCCCCCCCCC)n1` [Compound S9S12D9]: 7.6%.
`CCCCCCCCCCCCSc1nc(NCC2CCN(C)CC2)nc(SCCCCCCCCC)n1` [Compound S9S12D10]: the “Absolute DNA transfection efficiency in embryonic stem cells” value came to 14.0%.
The same measure, in the same setting: with `CCCCCCCCCCCCCCSc1nc(NCCN2CCCC2)nc(SCCCCCCCCC)n1` [Compound S9S14D3] the figure was 1.6%.

For the next experiment, the system named is HEK293 cells. Nature of the experiment: Preliminary screening as mRNA vectors, EGFP mRNA transfection of HEK293 cells. The class given is cell-based. The conditions noted are these: HEK293 cells, 96-well plates, EGFP mRNA 50 ng per well; percentage of GFP fluorescent cells relative to total number of cells (Hoechst). In short, it runs like this: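 Each well of HEK293 cells received 50 ng of EGFP mRNA. Efficiency was expressed as percent GFP-expressing cells over Hoechst-defined total cell number.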
For the compound `CCCCCCCCCCCCSc1nc(NCCCN(C)C)nc(SCCCCCCCCC)n1` [Compound S9S12D6], the “Absolute mRNA transfection efficiency in HEK293 cells” value turned out to be 61.6%.
Still for that read-out and setting: with `CCCCCCCCCCCCSc1nc(NCCCN2CCOCC2)nc(SCCCCCCCCC)n1` [Compound S9S12D8] the figure was 13.8%; with `CCCCCCCCCCCCSc1nc(NCCCN2CCN(C)CC2)nc(SCCCCCCCCC)n1` [Compound S9S12D9], 60.9%.
On the same count and under the same terms, with `CCCCCCCCCCCCSc1nc(NCC2CCN(C)CC2)nc(SCCCCCCCCC)n1` [Compound S9S12D10] the figure was 82.9%; with `CCCCCCCCCCCCCCSc1nc(NCCN2CCCC2)nc(SCCCCCCCCC)n1` [Compound S9S14D3], 2.3%.

Another experiment has as its system Hela cells. Description: Transfection of Hela cell line, mRNA vectors. The conditions noted are these: 50 ng EGFP mRNA per well. The class given is cell-based. In short, it runs like this: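 Transfection efficiency was scored as GFP-fluorescent cells over Hoechst-stained total nuclei, with Lipofectamine2000 as reference reagent. Each well of HeLa cells, grown in DMEM plus 10% FBS, received 50 ng EGFP mRNA.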
Regarding `CCCCCCCCCCCCSc1nc(NCCCN(C)C)nc(SCCCCCCCCC)n1` [Compound S9S12D6], the “Absolute mRNA transfection efficiency in Hela cells” value was 10.9%.
Same read-out and setting: next, `CCCCCCCCCCCCSc1nc(NCCCN2CCOCC2)nc(SCCCCCCCCC)n1` [Compound S9S12D8]: 15.8%; `CCCCCCCCCCCCSc1nc(NCCCN2CCN(C)CC2)nc(SCCCCCCCCC)n1` [Compound S9S12D9]: 19.6%.
With `CCCCCCCCCCCCSc1nc(NCC2CCN(C)CC2)nc(SCCCCCCCCC)n1` [Compound S9S12D10], the “Absolute mRNA transfection efficiency in Hela cells” value stood at 8.9%.
Same read-out and setting: next, `CCCCCCCCCCCCCCSc1nc(NCCN2CCCC2)nc(SCCCCCCCCC)n1` [Compound S9S14D3]: 2.5%.

Another experiment concerns HEK293 cells. Description: Preliminary screening as DNA vectors, GFP transfection of HEK293 cells. The class given is cell-based. The conditions noted are these: HEK293 cells; lipid/DOPE liposome with 75 ng plasmid DNA (psin-EGFP-IRES-Puro); number of cells expressing GFP divided by total number of nuclei (Hoechst). A digest of the protocol:
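Lipid + DOPE liposomes (NaOAc, pH 5.6) complexed w/ 75 ng psin-EGFP-IRES-Puro, 30 min RT; added to 3-5×10^4 HEK293/well, 37° C. Hoechst 0.2 μg/mL at 20-24 h, imaged after further 20-24 h. Efficiency = GFP+ cells / total nuclei.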
Turning to `CCCCCCCCCCCCSc1nc(NCCCN(C)C)nc(SCCCCCCCCC)n1` [Compound S9S12D6], the “Absolute DNA transfection efficiency in HEK293 cells” value turned out to be 20.2%.
Same read-out and setting: next, `CCCCCCCCCCCCSc1nc(NCCCN2CCOCC2)nc(SCCCCCCCCC)n1` [Compound S9S12D8]: 30.4%; `CCCCCCCCCCCCSc1nc(NCCCN2CCN(C)CC2)nc(SCCCCCCCCC)n1` [Compound S9S12D9]: 39.3%.
`CCCCCCCCCCCCSc1nc(NCC2CCN(C)CC2)nc(SCCCCCCCCC)n1` [Compound S9S12D10]: the “Absolute DNA transfection efficiency in HEK293 cells” value amounted to 17.9%.
Same read-out and setting: next, `CCCCCCCCCCCCCCSc1nc(NCCN2CCCC2)nc(SCCCCCCCCC)n1` [Compound S9S14D3]: 5.1%.
